Experimental data: ChEMBL document CHEMBL1201862, “PubChem BioAssay data set” (2004)
The source made the active and inactive calls.

Key:
[1] = test system: Streptococcus sp. 'group A'; test: growth inhibition of control SK(-) GAS strain, dose response, counter-screen for streptokinase expression inhibitor project, luminescence, kanamycin, BacTiterGlo, confirmation (AID 1900); assay type: functional, organism-based
Streptokinase A = target: T1, Streptokinase A (Streptococcus pyogenes serotype M1, UniProt P10520); test: S. pyogenes streptokinase expression inhibitors, potency, dose response, plasminogen activation absorbance, OD405 (AID 1914); assay type: functional, Streptococcus pyogenes M1 GAS;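 also: secreted streptokinase activity via plasminogen activation per viability signal from cell pellet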
T1 sequence (P10520 whole entry): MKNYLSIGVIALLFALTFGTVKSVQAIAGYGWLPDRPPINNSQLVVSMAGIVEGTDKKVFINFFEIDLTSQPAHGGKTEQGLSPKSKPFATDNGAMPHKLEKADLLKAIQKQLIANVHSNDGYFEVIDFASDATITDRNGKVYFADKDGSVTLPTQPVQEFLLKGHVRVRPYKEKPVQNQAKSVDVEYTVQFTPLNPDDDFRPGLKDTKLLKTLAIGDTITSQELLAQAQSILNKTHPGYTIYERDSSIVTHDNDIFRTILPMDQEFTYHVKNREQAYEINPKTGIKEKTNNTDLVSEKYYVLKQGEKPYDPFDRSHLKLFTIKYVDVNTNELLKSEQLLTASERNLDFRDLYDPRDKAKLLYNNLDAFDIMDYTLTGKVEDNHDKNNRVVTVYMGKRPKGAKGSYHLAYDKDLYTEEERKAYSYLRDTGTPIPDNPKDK

Streptococcus = test: Group A Streptococcus viability loss, dose response, counter-screen for streptokinase expression inhibitor project, luminescence, BacTiterGlo (AID 1915); assay type: functional, organism-based;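 also: potency for reduction of bacterial viability or growth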
[2] = target: T2, Rac GTPase-activating protein 1 (Homo sapiens, UniProt Q9H0H5); test: MgcRacGAP GTPase-activating activity inhibitors, confirmation, biochemical, ADP Hunter fluorescence, primary and confirmatory (AID 624330); assay type: functional
T2 sequence (Q9H0H5 whole entry): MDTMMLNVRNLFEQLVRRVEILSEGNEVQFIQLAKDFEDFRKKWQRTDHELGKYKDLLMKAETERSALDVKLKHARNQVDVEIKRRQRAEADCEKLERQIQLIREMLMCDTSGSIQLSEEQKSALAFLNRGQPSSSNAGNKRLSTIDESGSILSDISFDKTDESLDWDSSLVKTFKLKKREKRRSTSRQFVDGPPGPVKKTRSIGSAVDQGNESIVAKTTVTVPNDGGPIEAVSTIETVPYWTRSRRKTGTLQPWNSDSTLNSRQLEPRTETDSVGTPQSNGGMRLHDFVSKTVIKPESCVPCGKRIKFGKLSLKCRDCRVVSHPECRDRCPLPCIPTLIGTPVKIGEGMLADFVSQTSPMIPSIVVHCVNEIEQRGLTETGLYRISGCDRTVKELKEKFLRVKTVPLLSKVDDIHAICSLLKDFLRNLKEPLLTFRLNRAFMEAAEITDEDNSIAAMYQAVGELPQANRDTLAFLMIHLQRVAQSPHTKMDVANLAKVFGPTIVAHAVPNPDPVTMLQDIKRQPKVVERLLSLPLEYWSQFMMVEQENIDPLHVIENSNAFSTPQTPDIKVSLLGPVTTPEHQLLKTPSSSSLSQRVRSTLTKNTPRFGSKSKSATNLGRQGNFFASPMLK

Paired box protein Pax-8 = Paired box protein Pax-8 (Homo sapiens, UniProt Q06710); test: inhibitors of PAX8-driven TPO luciferase reporter, dose response, RMG-I cells, cherry-pick (AID 687027); assay type: functional, cell-based;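 also: luciferase reporter driven by Pax8 target thyroperoxidase promoter measured by SteadyGlo luminescence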
Paired box protein Pax-8, sequence (Q06710 whole entry): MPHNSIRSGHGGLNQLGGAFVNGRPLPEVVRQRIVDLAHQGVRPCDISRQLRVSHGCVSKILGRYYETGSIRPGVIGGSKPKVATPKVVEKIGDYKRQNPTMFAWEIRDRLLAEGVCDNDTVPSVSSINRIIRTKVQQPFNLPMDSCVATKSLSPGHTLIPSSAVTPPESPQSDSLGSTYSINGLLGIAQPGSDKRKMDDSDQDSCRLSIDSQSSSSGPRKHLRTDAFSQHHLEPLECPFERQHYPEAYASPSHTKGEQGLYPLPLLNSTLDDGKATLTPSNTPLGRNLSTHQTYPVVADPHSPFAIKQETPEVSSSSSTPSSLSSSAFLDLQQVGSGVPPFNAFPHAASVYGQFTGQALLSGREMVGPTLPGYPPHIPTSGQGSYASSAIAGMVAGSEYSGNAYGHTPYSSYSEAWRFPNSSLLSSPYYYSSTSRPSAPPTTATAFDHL

[3] = microbe, parasite or virus in culture; assay type: functional; details: Mycobacterium tuberculosis
INS1 = test: beta cell apoptosis inhibitors, cytokine rescue, dose response, luminescence, retest (AID 449756); assay type: functional, cell-based; details: Rattus norvegicus;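 also: cell death triggered by IL-1 beta plus TNF-alpha plus IFN-gamma mixture; protective hits raise ATP signal compared with cytokine alone wells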

**Q.** With `Cc1ccc(CN=C(S)Nc2ccc(NS(=O)(=O)c3ccc(C)cc3)cc2)cc1` as the compound, how does the EC50 [1] read?
**A.** The EC50 was 9.78 µM (active).

**Q.** And the EC50 (Streptokinase A)?
**A.** The EC50 was > 150 µM (not active).

**Q.** And the EC50 (Streptococcus)?
**A.** Its EC50 is 17.6 µM (active).

**Q.** Which IC50 [2] does the source give for `COc1cc(/C=C/C(=O)OCC(=O)Nc2cc(S(=O)(=O)N3CCCCC3)ccc2C)ccc1O` here?
**A.** The IC50 was 68.1 µM (active).

**Q.** Which AC50 (Paired box protein Pax-8) does the source give for `C[C@@H]1CN([C@@H](C)CO)C(=O)c2cc(NC(=O)Nc3ccc4c(c3)OCO4)ccc2O[C@@H]1CN(C)C(=O)Nc1ccc(C(F)(F)F)cc1` here?
**A.** Its AC50 is 11.1 µM (active).

**Q.** Which results are given for `O=C(NC(=S)N1CCN(c2ccc(F)cc2)CC1)C12CC3CC(CC(C3)C1)C2`?
**A.** EC50 [1]: 29.7 µM (active); EC50 (Streptokinase A): > 150 µM (not active); EC50 (Streptococcus): > 150 µM (not active)

**Q.** Which results are given for `CS(=O)(=O)Nc1ccc(C(=O)Nc2ccccc2C(=O)NCc2ccco2)cc1`?
**A.** EC50 [1]: > 150 µM (not active); EC50 (Streptokinase A): > 150 µM (not active); EC50 (Streptococcus): > 150 µM (not active)

**Q.** With `O=C(COC(=O)c1ccco1)Nc1cccc(S(=O)(=O)N2CCOCC2)c1` as the compound, how does the AC50 (Paired box protein Pax-8) read?
**A.** Its AC50 is 62.1 µM (active).

**Q.** Which results are given for `CCCCn1c(=O)c(C(=O)NCc2ccccc2Cl)c(O)c2ccccc21`?
**A.** EC50 [1]: 54.8 µM (active); EC50 (Streptokinase A): 5.97 µM (inconclusive); EC50 (Streptococcus): > 150 µM (not active)

**Q.** For `O=C(CN1CCN(Cc2ccccc2)CC1)NC(c1ccccc1)c1ccccc1`, which IC50 [2] is on record?
**A.** Its IC50 is 77.1 µM (active).

**Q.** For `Brc1ccc(OCCCN2CCOCC2)cc1`, which IC50 [2] is on record?
**A.** The IC50 was 123 µM (active).

**Q.** What does the source list for `Cc1ccc(Oc2ccc3c(c2)C(=O)N(c2ccc(S(=O)(=O)Nc4nccs4)cc2)C3=O)cc1`?
**A.** EC50 [1]: 9.43 µM (active); EC50 (Streptokinase A): > 150 µM (not active); EC50 (Streptococcus): 20 µM (active)

**Q.** Which results are given for `CCc1ccc2nc(N3C(=O)C(O)=C(C(=O)c4ccco4)C3c3cccs3)sc2c1` (centres undefined)?
**A.** EC50 [1]: 2.2 µM (active); EC50 (Streptokinase A): > 150 µM (not active); CC50 [3]: > 40 µM (active); EC50 (Streptococcus): 7.12 µM (active)

**Q.** Which IC50 [2] does the source give for `Cc1ccc(C2=NN=C(NC(=O)CSc3nncn3C)SC2)cc1` here?
**A.** Its IC50 is 256 µM (active).

**Q.** Which results are given for `CC(NS(=O)(=O)/C=C/c1ccccc1)C(=O)O` (centres undefined)?
**A.** EC50 [1]: > 150 µM (not active); EC50 (Streptokinase A): > 150 µM (not active); EC50 (Streptococcus): > 150 µM (not active)

**Q.** Which IC50 [2] does the source give for `CCN=C(S)Nc1cc2oc3ccccc3c2cc1OC` here?
**A.** The IC50 was 99.9 µM (active).

**Q.** Which AC50 (INS1) does the source give for `COc1ccc(CN2CCN(CCSc3ccc(C)cc3)CC2)c(OC)c1OC` here?
**A.** Its AC50 is > 260 µM (inactive).

**Q.** What about the IC50 [2] of the same compound?
**A.** Its IC50 is 80 µM (active).

**Q.** For `COc1ccc(C2c3ccc(O)cc3Oc3ncn4nc(-c5ccncc5)nc4c32)cc1OC` (centres undefined), which EC50 [1] is on record?
**A.** Its EC50 is 4.67 µM (active).

**Q.** What about the EC50 (Streptokinase A) of the same compound?
**A.** Its EC50 is > 150 µM (not active).

**Q.** What about the EC50 (Streptococcus) of the same compound?
**A.** The EC50 was 27.9 µM (active).
